This assay deals with T1, PERK (Homo sapiens, UniProt Q9NZJ5).
T1 construct: GST-PERK (536-1116) cytoplasmic domain was purchased from Invitrogen; purchased Invitrogen PV5106
T1 sequence (Q9NZJ5 536-1116): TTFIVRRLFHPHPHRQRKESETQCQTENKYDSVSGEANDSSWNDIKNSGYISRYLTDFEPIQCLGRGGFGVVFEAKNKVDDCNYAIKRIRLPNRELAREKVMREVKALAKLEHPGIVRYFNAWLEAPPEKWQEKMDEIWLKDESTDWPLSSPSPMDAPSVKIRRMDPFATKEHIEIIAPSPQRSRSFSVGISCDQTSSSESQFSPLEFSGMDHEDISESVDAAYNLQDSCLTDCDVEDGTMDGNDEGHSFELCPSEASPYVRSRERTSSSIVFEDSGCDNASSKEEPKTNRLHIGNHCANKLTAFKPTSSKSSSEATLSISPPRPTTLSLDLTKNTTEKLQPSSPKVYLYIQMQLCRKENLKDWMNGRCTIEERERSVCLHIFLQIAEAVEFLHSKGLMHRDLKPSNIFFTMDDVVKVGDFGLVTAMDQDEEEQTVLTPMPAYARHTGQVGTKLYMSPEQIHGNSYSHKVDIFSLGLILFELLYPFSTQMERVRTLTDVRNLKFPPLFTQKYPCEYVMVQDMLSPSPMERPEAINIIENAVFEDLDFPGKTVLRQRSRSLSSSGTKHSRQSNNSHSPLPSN
Put plainly: PKR-like Endoplasmic Reticulum Kinase (PERK) Assay (HTRF Format). Format: biochemical. As to conditions: average, in at least one set of experimental runs; read-out: average pIC50 value against PERK (converted). The procedure:
PKR-like Endoplasmic Reticulum Kinase (PERK) Assay (HTRF Format)
Source of substrate: elF2α: 6-His-Full-length human elF2α is purified from baculovirus expression in Sf9 insect cells. The elF2 protein is buffer exchanged by dialysis into PBS, chemically modified by NHS-LC-Biotin and then buffer exchanged by dialysis into 50 mm TRIS pH 7.2/250 mM NaCl/5 mM DTT. Protein is aliquoted and stored at −80° C.
Assays were performed by adding GST-PERK solution to assay plates containing compounds and pre-incubated for 30 minutes at room temperature. The reaction is initiated by the addition of ATP and EIF2α substrate solution. Quench solution is added following a one hour incubation at room temperature. The plates are covered for 2 hours at room temperature prior to determination of signal. The resulting signal is quantified on a Viewlux Reader (PerkinElmer). The APC Signal is normalized to the Europium signal by transforming the data through an APC/Eu calculation.
Compounds under analysis were dissolved in DMSO to 1.0 mM and serially diluted 1 to 3 with DMSO through eleven dilutions. 0.1 μl of each concentration was transferred to the corresponding well of an assay plate. This creates a final compound concentration range from 0.00017 to 10 μM.
The data for concentration response curves were plotted as % Inhibition calculated with the data reduction formula 100*(1−(U1−C2)/(C1−C2)) versus concentration of compound where U is the unknown value, C1 is the average control value obtained for 1% DMSO, and C2 is the average control value obtained for 0.1 M EDTA. Data were fitted with a curve described by:
where A is the minimum y, B is the maximum y concentration [M], D is the slope factor, and x is the log10 of the compound.
In the above data, pIC50 is defined as −log(IC50) where the IC50 value is expressed in molar units.
For orientation: Time-resolved FRET reads energy transfer from a long-lived donor to a nearby acceptor.

On to `COc1cccc(CC(=O)N2CCc3cc(-c4csc5ccnc(N)c45)ccc32)c1` [Example 23, 3-(1-{[3-(methyloxy)phenyl]acetyl}-2,3-dihydro-1H-indol-5-yl)thieno[3,2-c]pyridin-4-amine], for which the IC50 is at most 2.51 nM.

As to `Cn1cc(-c2ccc3c(c2)CCN3C(=O)Cc2ccc(F)cc2F)c2c(N)ncnc21` [Example 102, 5-{1-[(2,4-difluorophenyl)acetyl]-2,3-dihydro-1H-indol-5-yl}-7-methyl-7H-pyrrolo[2,3-d]pyrimidin-4-amine], the IC50 is at most 2.51 nM.

As to `Cn1cc(-c2ccc3c(c2)CCN3C(=O)Cc2cc(F)cc(F)c2)c2c(N)ncnc21` [Example 89, 5-{1-[(3,5-difluorophenyl)acetyl]-2,3-dihydro-1H-indol-5-yl}-7-methyl-7H-pyrrolo[2,3-d]pyrimidin-4-amine], the IC50 was at most 1 nM.

In the case of `Cc1ccc(C)c(CC(=O)N2CCc3cc(-c4nn(C)c5ncnc(N)c45)ccc32)c1` [Example 28, 3-{1-[(2,5-dimethylphenyl)acetyl]-2,3-dihydro-1H-indol-5-yl}-1-methyl-1H-pyrazolo[3,4-d]pyrimidin-4-amine], the IC50 was at most 0.316 nM.

On to `Cn1cc(-c2ccc3c(c2F)CCN3C(=O)Cc2ccccc2)c2c(N)ncnc21` [Example 112, 5-[4-fluoro-1-(phenylacetyl)-2,3-dihydro-1H-indol-5-yl]-7-methyl-7H-pyrrolo[2,3-d]pyrimidin-4-amine], for which the IC50 was at most 0.316 nM.

For the compound `Cc1cccc(CC(=O)N2CCc3cc(-c4cn(C)c5ncnc(N)c45)ccc32)n1` [Example 121, 7-methyl-5-{1-[(6-methyl-2-pyridinyl)acetyl]-2,3-dihydro-1H-indol-5-yl}-7H-pyrrolo[2,3-d]pyrimidin-4-amine], the IC50 is at most 2.51 nM.

With `Cn1cc(-c2ccc3c(c2)CCN3C(=O)Cc2ccccc2)c2c(N)ncnc21` [Example 4, 7-methyl-5-[1-(phenylacetyl)-2,3-dihydro-1H-indol-5-yl]-7H-pyrrolo[2,3-d]pyrimidin-4-amine], the IC50 is at most 2.51 nM.

Turning to `Nc1ncnc2occ(-c3ccc4c(c3)CCN4C(=O)Cc3cc(F)cc(C(F)(F)F)c3)c12` [Example 119, 5-(1-{[3-fluoro-5-(trifluoromethyl)phenyl]acetyl}-2,3-dihydro-1H-indol-5-yl)furo[2,3-d]pyrimidin-4-amine], the IC50 is at most 2.51 nM.

Turning to `Cc1cccc(CC(=O)N2CCc3cc(-c4cncc5[nH]nc(N)c45)ccc32)c1` [Example 130, 4-{1-[(3-methylphenyl)acetyl]-2,3-dihydro-1H-indol-5-yl}-1H-pyrazolo[3,4-c]pyridin-3-amine], the IC50 is at most 0.316 nM.

Take `Cc1cc(F)cc(CC(=O)N2CCc3cc(-c4nn(C)c5ncnc(N)c45)ccc32)c1` [Example 29, 3-{1-[(3-fluoro-5-methylphenyl)acetyl]-2,3-dihydro-1H-indol-5-yl}-1-methyl-1H-pyrazolo[3,4-d]pyrimidin-4-amine]: the IC50 was at most 0.316 nM.

On to `CN1CC(n2cc(-c3ccc4c(c3)CCN4C(=O)Cc3cccc(C(F)(F)F)c3)c3c(N)ncnc32)C1` [Example 133, 7-(1-methyl-3-azetidinyl)-5-(1-{[3-(trifluoromethyl)phenyl]acetyl}-2,3-dihydro-1H-indol-5-yl)-7H-pyrrolo[2,3-d]pyrimidin-4-amine], for which the IC50 was at most 1 nM.

As for `Cn1cc(-c2ccc3c(c2)CCN3C(=O)Cc2cccc(Cl)c2)c2c(N)ncnc21` [Example 46, 5-{1-[(3-chlorophenyl)acetyl]-2,3-dihydro-1H-indol-5-yl}-7-methyl-7H-pyrrolo[2,3-d]pyrimidin-4-amine], the IC50 is at most 0.316 nM.

As to `Cn1cc(-c2ccc3c(c2)CCN3C(=O)Cc2cccc(C(F)(F)F)n2)c2c(N)ncnc21` [Example 125, 7-methyl-5-(1-{[6-(trifluoromethyl)-2-pyridinyl]acetyl}-2,3-dihydro-1H-indol-5-yl)-7H-pyrrolo[2,3-d]pyrimidin-4-amine], the IC50 is at most 1 nM.

With `Cn1cc(-c2ccc3c(c2)CCN3C(=O)Cc2ccccc2F)c2c(N)ncnc21` [Example 34, 5-{1-[(2-fluorophenyl)acetyl]-2,3-dihydro-1H-indol-5-yl}-7-methyl-7H-pyrrolo[2,3-d]pyrimidin-4-amine], the IC50 was at most 0.316 nM.

Regarding `Cc1cccc(CC(=O)N2CCc3cc(-c4cn(C5CCNCC5)c5ncnc(N)c45)ccc32)c1` [Example 62, 5-{1-[(3-methylphenyl)acetyl]-2,3-dihydro-1H-indol-5-yl}-7-(4-piperidinyl)-7H-pyrrolo[2,3-d]pyrimidin-4-amine], the IC50 is at most 1 nM.

`Nc1ncc(-c2ccncc2)c2scc(-c3ccc4c(c3)CCN4C(=O)Cc3ccccc3)c12` [Example 9, 3-[1-(phenylacetyl)-2,3-dihydro-1H-indol-5-yl]-7-(4-pyridinyl)thieno[3,2-c]pyridin-4-amine]: the IC50 is at most 1 nM.

As to `Cn1cc(-c2ccc3c(c2F)CCN3C(=O)Cc2ccc(F)cc2)c2c(N)ncnc21` [Example 141, 5-{4-fluoro-1-[(4-fluorophenyl)acetyl]-2,3-dihydro-1H-indol-5-yl}-7-methyl-7H-pyrrolo[2,3-d]pyrimidin-4-amine], the IC50 is at most 0.316 nM.

On to `Cc1cccc(CC(=O)N2CCc3cc(-c4nn(C)c5ncnc(N)c45)ccc32)c1` [Example 18, 1-methyl-3-(1[(3-methylphenyl)acetyl]-2,3-dihydro-1H-indol-5-yl)-1H-pyrazolo[3,4-d]pyrimidin-4-amine], for which the IC50 is at most 1 nM.

Regarding `Cc1cc(C)cc(CC(=O)N2CCc3cc(-c4nn(C)c5ncnc(N)c45)ccc32)c1` [Example 30, 3-{1-[(3,5-dimethylphenyl)acetyl]-2,3-dihydro-1H-indol-5-yl}-1-methyl-1H-pyrazolo[3,4-d]pyrimidin-4-amine], the IC50 was at most 1 nM.

As for `Cc1cc(F)cc(CC(=O)N2CCc3cc(-c4cn(C)c5ncnc(N)c45)ccc32)c1` [Example 45, 5-{1-[(3-fluoro-5-methylphenyl)acetyl]-2,3-dihydro-1H-indol-5-yl}-7-methyl-7H-pyrrolo[2,3-d]pyrimidin-4-amine], the IC50 is at most 0.316 nM.

`Cc1cc(C)n(CC(=O)N2CCc3cc(-c4cn(C)c5ncnc(N)c45)ccc32)n1` [Example 111, 5-{1-[(3,5-dimethyl-1H-pyrazol-1-yl)acetyl]-2,3-dihydro-1H-indol-5-yl}-7-methyl-7H-pyrrolo[2,3-d]pyrimidin-4-amine]: the IC50 was at most 1 nM.

As to `Nc1ncc(C2=CCNCC2)c2scc(-c3ccc4c(c3)CCN4C(=O)Cc3ccccc3)c12` [Example 19, 3-[1-(phenylacetyl)-2,3-dihydro-1H-indol-5-yl]-7-(1,2,3,6-tetrahydro-4-pyridinyl)thieno[3,2-c]pyridin-4-amine], the IC50 is at most 2.51 nM.

As for `Cc1cccc(CC(=O)N2CCc3cc(-c4cn(C)c5ncnc(N)c45)ccc32)c1` [Example 37, 7-methyl-5-{1-[(3-methylphenyl)acetyl]-2,3-dihydro-1H-indol-5-yl}-7H-pyrrolo[2,3-d]pyrimidin-4-amine], the IC50 was at most 0.316 nM.

Consider `Cn1cc(-c2ccc3c(c2)CCN3C(=O)Cc2cc(F)ccc2F)c2c(N)ncnc21` [Example 59, 5-{1-[(2,5-difluorophenyl)acetyl]-2,3-dihydro-1H-indol-5-yl}-7-methyl-7H-pyrrolo[2,3-d]pyrimidin-4-amine], for which the IC50 was at most 1 nM.

For the compound `Cn1nc(-c2ccc3c(c2)CCN3C(=O)Cc2cccc(Cl)c2)c2c(N)ncnc21` [Example 42, 3-{1-[(3-chlorophenyl)acetyl]-2,3-dihydro-1H-indol-5-yl}-1-methyl-1H-pyrazolo[3,4-d]pyrimidin-4-amine], the IC50 was at most 2.51 nM.

As to `Nc1ncnc2c1c(-c1ccc3c(c1)CCN3C(=O)Cc1cc(F)ccc1F)cn2C1CNC1` [Example 144, 7-(3-azetidinyl)-5-{1-[(2,5-difluorophenyl)acetyl]-2,3-dihydro-1H-indol-5-yl}-7H-pyrrolo[2,3-d]pyrimidin-4-amine], the IC50 is at most 0.316 nM.
